# Test results as given in patent US5955464A, “4-anilinoquinazoline derivatives bearing a heteroaryl substituted at the 6-position and possessing anti-cell-proliferation properties” (Zeneca Limited, priority 1994, dated 1999).
# Experiments:
# [1] = system: EGF receptor tyrosine kinase; details: in words; Fry et al., Science, 1994, 265, 1093; cited from earlier work
# [2] = target: T1, EGF receptor tyrosine kinase (Homo sapiens, UniProt P00533); test: in vitro assay of inhibition of the enzyme EGF receptor tyrosine kinase (Test (a)); format: biochemical; details: EGF receptor tyrosine kinase from A-431 cells
# T1 construct: Receptor tyrosine kinase was obtained in partially purified form from A-431 cells; endogenous in cells; host or cells: A-431 cells (human vulval carcinoma), Triton X-100-solubilised membrane fraction
# T1 sequence (P00533 25-1210): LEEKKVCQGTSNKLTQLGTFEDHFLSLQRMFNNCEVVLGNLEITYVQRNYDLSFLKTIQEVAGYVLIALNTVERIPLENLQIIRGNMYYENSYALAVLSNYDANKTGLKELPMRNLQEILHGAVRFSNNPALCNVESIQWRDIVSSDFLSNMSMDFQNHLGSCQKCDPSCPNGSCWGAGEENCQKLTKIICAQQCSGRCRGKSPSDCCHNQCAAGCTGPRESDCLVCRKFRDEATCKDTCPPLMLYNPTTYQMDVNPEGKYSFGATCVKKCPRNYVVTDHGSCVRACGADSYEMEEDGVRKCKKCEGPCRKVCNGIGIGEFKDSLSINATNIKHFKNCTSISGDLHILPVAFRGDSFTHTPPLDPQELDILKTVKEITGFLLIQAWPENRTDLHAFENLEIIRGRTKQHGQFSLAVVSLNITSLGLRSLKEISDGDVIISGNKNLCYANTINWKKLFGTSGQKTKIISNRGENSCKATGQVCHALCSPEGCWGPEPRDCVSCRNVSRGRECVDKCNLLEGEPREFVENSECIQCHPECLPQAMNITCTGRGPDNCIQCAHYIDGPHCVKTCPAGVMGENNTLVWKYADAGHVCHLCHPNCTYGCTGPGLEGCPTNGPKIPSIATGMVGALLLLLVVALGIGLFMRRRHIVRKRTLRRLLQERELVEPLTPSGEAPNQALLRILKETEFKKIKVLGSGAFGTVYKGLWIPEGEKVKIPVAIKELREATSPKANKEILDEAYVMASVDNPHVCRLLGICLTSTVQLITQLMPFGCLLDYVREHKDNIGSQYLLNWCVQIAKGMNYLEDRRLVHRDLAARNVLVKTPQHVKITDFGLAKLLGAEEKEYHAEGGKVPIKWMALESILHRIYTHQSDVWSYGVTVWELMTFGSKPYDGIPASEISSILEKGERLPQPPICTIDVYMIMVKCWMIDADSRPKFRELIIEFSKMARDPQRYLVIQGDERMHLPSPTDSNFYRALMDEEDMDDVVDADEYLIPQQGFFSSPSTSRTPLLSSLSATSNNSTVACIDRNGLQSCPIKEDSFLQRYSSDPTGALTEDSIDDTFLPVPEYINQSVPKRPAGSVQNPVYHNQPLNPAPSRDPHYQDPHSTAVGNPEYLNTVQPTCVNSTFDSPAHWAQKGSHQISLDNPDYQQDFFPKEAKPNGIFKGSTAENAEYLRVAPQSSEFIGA
# T1 sequence (P01133 971-1023 partner limits assumed): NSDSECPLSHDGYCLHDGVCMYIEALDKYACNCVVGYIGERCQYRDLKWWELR
# Description: (a) An in vitro assay which determines the ability of a test compound to inhibit the enzyme EGF receptor tyrosine kinase. Receptor tyrosine kinase was obtained in partially purified form from A-431 cells (derived from human vulval carcinoma) by the procedures described below which are related to those described by Carpenter et al., J. Biol. Chem., 1979, 254, 4884, Cohen et al, J. Biol. Chem., 1982, 257, 1523 and by Braun et al., J. Biol. Chem., 1984, 259, 2051.
# A-431 cells were grown to confluence using Dulbecco's modified Eagle's medium (DMEM) containing 5% fetal calf serum (FCS). The obtained cells were homogenised in a hypotonic borate/EDTA buffer at pH 10.1. The homogenate was centrifuged at 400 g for 10 minutes at 0-4° C. The supernatant was centrifuged at 25,000 g for 30 minutes at 0-4° C. […]
# The test compound/EGF mixture solution (5 μl) was added to the test enzyme solution (10 μl) and the mixture was incubated at 0-4° C. for 30 minutes. […] Radioactivity present in the filter paper was measured using a liquid scintillation counter (Sequence A). […]
# Receptor tyrosine kinase inhibition was calculated as follows: [formula]
# The extent of inhibition was then determined at a range of concentrations of test compound to give an IC50 value.
# [3] = system: KB cells; test: in vitro assay of inhibition of EGF-stimulated growth of the human naso-pharyngeal cancer cell line KB (Test (b)); format: cell-based; details: 72 h, EGF 10 ng/ml, 3 days
# Description: (b) An in vitro assay which determines the ability of a test compound to inhibit the EGF-stimulated growth of the human naso-pharyngeal cancer cell line KB. KB cells were seeded into wells at a density of 1×10^4 -1.5×10^4 cells per well and grown for 24 hours in DMEM supplemented with 5% FCS (charcoal-stripped). Cell growth was determined after incubation for 3 days by the extent of metabolism of MTT tetrazolium dye to furnish a bluish colour. Cell growth was then determined in the presence of EGF (10 ng/ml) or in the presence of EGF (10 ng/ml) and a test compound at a range of concentrations. An IC50 value could then be calculated.
# [4] = system: liver hepatocyte growth; test: in vivo assay in male rats of inhibition of TGFα-stimulated liver hepatocyte growth (Test (c)); details: Rattus norvegicus, usually oral, inhibition of BrdU uptake, approximate ED50
# Description: (c) An in vivo assay in a group of male rats which determines the ability of a test compound (usually administered orally as a ball-milled suspension in 0.5% polysorbate) to inhibit the stimulation of liver hepatocyte growth caused by the administration of the growth factor TGFα (400 μg/kg subcutaneously, usually dosed twice, 3 and 7 hours respectively after the administration of the test compound).
# In a control group of rats, the administration of TGFα causes on average a 5-fold stimulation of liver hepatocyte growth.
# Cell-growth in the control and test animals is determined as follows:
# On the morning of the day after the dosing of the test compound (or 0.5% polysorbate in the control group), the animals are dosed with bromodeoxyuridine (BrdU; 100 mg/kg intraperitoneally). The animals are killed four hours later and the livers are excised. […] Further tests were carried out using a range of doses of the test compounds to allow the calculation of an approximate ED50 value for the inhibition of liver hepatocyte proliferation as determined by inhibition of the uptake of BrdU.
# [5] = system: xenografts of the human vulval epidermoid carcinoma cell line A431; test: in vivo assay in athymic nude mice of inhibition of growth of A431 xenografts (Test (d)); design: species or system athymic nude mice (human A431 xenograft); details: 200 mg/kg/day, once daily, usually oral
# Description: (d) An in-vivo assay in a group of athymic nude mice (strain ONU:Alpk) which determines the ability of a test compound (usually administered orally as a ball-milled suspension in 0.5% polysorbate) to inhibit the growth of xenografts of the human vulval epidermoid carcinoma cell line A431.
# A431 cells were maintained in culture in DMEM supplemented with 5% FCS and 2 mM glutamine. Freshly cultured cells were harvested by trypsinization and injected subcutaneously (10 million cells/0.1 ml/mouse) into both flanks of a number of donor nude mice. When sufficient tumour material was available (after approximately 9 to 14 days), fragments of tumour tissue were transplanted into the flanks of recipient nude mice (test day 0). On the eighth day after transplantation (test day 7) groups of 8 to 10 mice with similar-sized tumours were selected and dosing of the test compound was commenced. Once-daily dosing of test compound was continued for a total of 13 days (test days 7 to 19 inclusive). In some studies the dosing of the test compound was continued beyond test day 19, for example to test day 26. In each case, on the following day the animals were killed and final tumour volume was calculated from measurements of the length and width of the tumours. Results were calculated as a percentage inhibition of tumour volume relative to untreated controls.
# [6] = system: human mammary carcinoma which expresses EGF receptor tyrosine kinase; details: athymic nude mice; Toi et al., 1990; cited from earlier work
# [7] = system: another carcinoma which does not express EGF receptor tyrosine kinase; details: athymic nude mice; Toi et al., 1990; cited from earlier work
compound,measurement,setting,value
"COc1cc2ncnc(Nc3cccc(Br)c3)c2cc1OC [4-(3-bromoanilino)-6,7-dimethoxyquinazoline]",inhibition of EGF receptor tyrosine kinase,[1],highly potent inhibitor
Cc1cccc(Nc2ncnc3ccc(-n4ccnc4)cc23)c1 [4-(3-methylanilino)-6-(1-imidazolyl)quinazoline],IC50,[2],26 nM
same,IC50,[3],510 nM
same,ED50,[4],< 12.5 mg/kg
same,inhibition in Test (d) (percentage inhibition of tumour volume),[5],63%
O=CN/C=C/c1cc(O)ccc1O [erbstatin],growth of transplanted human mammary carcinoma expressing EGF receptor tyrosine kinase,[6],specifically attenuates the growth
same,growth of another carcinoma not expressing EGF receptor tyrosine kinase,[7],without effect on the growth
